From patent US9624235B2, “Compounds and methods for inhibition of AP endonuclease-1/redox factor-1 (HAPE1) activity” (University of Pittsburgh—Of the Commonwealth System of …, priority 2012, dated 2017)

Columns and labels:
[1] = target: APE-1 activity in T98G cell nuclear lysates (Homo sapiens (Human), UniProt P27695); assay: Molecular beacon assay in T98G cell nuclear extracts; format: biochemical
Method: Isolation and Assay of APE-1 Protein from Nuclear Extracts of Glioma Cells. Human glioblastoma cells (T98G) were maintained in growth medium, i.e., Eagle's Minimum Essential Medium (EMEM) with 10% fetal bovine serum (FBS), […] gentamycin, 1×MEM non-essential amino acids and 1 mM sodium pyruvate. Cells were harvested by Trypsin-EDTA treatment, washed with 1×PBS and nuclear proteins isolated using the CelLytic NuCLEAR Extraction kit (Sigma-Aldrich) as per manufacturer's instructions. Isolated nuclear proteins were estimated colorimetrically (BCA protein assay) and stored at −80° C. (long term) or at −20° C. during regular use. To assay APE-1 activity in T98G cells, nuclear extracts were serially diluted in 10 mM HEPES, 50 mM KCl, 1 mM DTT, 20% (v/v) glycerol and the activities measured via the molecular beacon assay (as described above). […] EC2 nM of nuclear extracts was incubated with 2 to 500 nM hairpin DNA substrate and the V0 measured for each value of [S]. Finally, the apparent KM* was deduced using the software algorithm in Prism (as described previously), and the KM* was used to determine the apparent Ki*. Inhibition of EC2 nM APE-1 activity by the inhibitors was assayed via the molecular beacon assay (described above).
Inhibition of APE-1 Activity in Nuclear Lysates. The ability of 1-5 and 8 to block APE-1 endonuclease activity in a complex mixture of proteins from T98G cell nuclear lysates was tested using the molecular beacon assay. The APE-1 activity in the lysates was standardized to give ˜90% turnover of 25 nM substrate in 10 min.

[2] = tested on: T98G cells; assay: Long term (10-day) CyQUANT cytotoxicity assay; format: cell-based, human
Method: (§1) Cytotoxic Effects of APE-1 Inhibitors on Cultured Human Glioblastoma (T98G) Cells. Human glioblastoma cells (T98G) were maintained in growth medium as described above. […] The cells were allowed to attach and grow for 24 h, and then treated with serial dilutions of the drug for 72 h. After treatment, viable cells were measured by an MTS assay using the CellTiter 96 AQueous kit (Promega) as per manufacturer's instructions. […] The cells were allowed to attach and grow for 24 h and treated with serial dilutions of the drug for 240 h. After treatment, viable cells were measured using the CyQUANT cell proliferation assay kit (Invitrogen) as per manufacturer's instructions.
(§2) Toxicity. It was assumed that inhibition of APE-1 activity would be lead to toxicity since genetic deletion of the protein is lethal to cells. […] The toxicities were also determined in combination with the DNA minor groove methylating agent, MeLex. MeLex efficiently and selectively generates N3-methyladenine, which is converted into an abasic site by a BER glycosylase and/or hydrolytic depurination. The T98G cell line is relatively resistant to DNA damaging anticancer agents due to expression of multiple drug resistance proteins and O^6-alkylguanine-DNA alkyltransferase. […] A goal of the development of APE-1 inhibitors is to determine if they can be used to enhance the activity of DNA alkylating agents.

[3] = tested on: VERA kidney cell line; conditions: read-out: IC50 for the toxicity; cited from earlier work
[4] = target: T1, APE-1 (Homo sapiens (Human), UniProt P27695); assay: Molecular beacon assay for APE-1 endonuclease inhibition; format: biochemical; conditions: molecular beacon assay, endonuclease activity; read-out: Ki APE-1 endonuclease inhibition
Text: Screening Assays for APE1 Inhibition—The initial screen was designed to look at the effect of potential inhibitors on APE1 repair kinetics. The approach can be used as a high throughput screen by choosing a specific timepoint to monitor. The screen utilizes a molecular beacon with a tetrahydrofuran (THF) abasic site within the stem region of a DNA hairpin that has a fluorophore on the 5′-terminus and a quencher on the 3′-terminus (FIG. 2a). […] An example of the molecular beacon screen and the excision assay are shown in FIGS. 2b,c and 2d, respectively.
Molecular Beacon Assay for Screening of APE-1 Inhibitors. A fluorescence-based molecular beacon assay to measure APE-1 protein activity and inhibition was performed as described previously with some modifications. Tang et al. Neuro Oncol. 13, 471-486 (2011) APE-1 (2 nM) in 10 mM HEPES (pH 7.8) 0.5 mM MgCl, 100 mM NaCl, 100 mM KCl, 0.0005% (w/v) BSA, was incubated with 20 nM 5′-(F)-CGACTXTTGAATTGACACGCCATGTCGATCAATTCAATAGTCG-(D)-3′ [X=tetrahydrofuran (THF) abasic site modification; F, 6-carboxyfluorescein (6-FAM); and D, DABCYL] that forms a hairpin with a 15 base pair stem and a 13 base loop. The THF modification is a known substrate for APE-1 excision. APE-1 mediated cleavage of the phosphodiester backbone at the THF-abasic site led to release of the 5′ 6-FAM (fluorophore) containing pentanucleotide, disrupting the Förster Resonance Energy Transfer (FRET) mediated quenching of the 6-FAM by DABCYL in the native hairpin oligomer. Since the signal was generated by continuous liberation of the fluorophore-labeled excision fragment, progress of this reaction could be monitored in real-time using a Cary Eclipse fluorescence spectrometer (Varian, Palo Alto, Calif.) or a Synergy H1 multi-well plate reader (BioTek, Winooski, Vt.). Reactions were optimized to yield ˜90% substrate turnover in 10 min, and fluorescence intensities measured every 12 s at 495 nm excitation and 520 nm emission. Data from the first 1-3 min of the assays (linear phase) were used to determine rate of substrate turnover (V0). The Michaelis constant (KM) was deduced experimentally, by incubating 2 nM APE-1 protein with 2-500 nM hairpin DNA substrate and measuring V0 —the experimentally observed V0 were analyzed as a function of substrate concentration [S] via non-linear regression using Prism (v.4; GraphPad Software, Inc., La Jolla, Calif.) and the KM was calculated as per the algorithm in the software package. To assay inhibition, 2 nM APE-1 protein was pre-incubated with 0.05-10.00 μM of the candidate inhibitors at 25° C. for 60 min, before initiating the excision assay by addition of hairpin DNA substrate. V0 was calculated at various concentrations of inhibitors and represented as inverse function of increasing inhibitor concentration [I]. […] All assays were carried out in three independent sets to obtain mean data and standard error of mean.
(§3) Screening for APE-1 Inhibitors. […] In this assay, the DNA hairpin substrate has a 6-FAM fluorophore on the 5′-terminus, a DABACYL fluorescence quencher on the 3′-terminus and a THF abasic site located 6 base pairs from the 5′-terminus in the stem region (FIG. 6). APE-1 activity is monitored as an increase in fluorescence due to the release of the 5′-(6-FAM)-GCACT fragment as a function of time. […] In this assay, substrate turnover was calculated from relative intensities of cleaved vs. intact oligomers and correlated with inhibitor concentration.

[5] = target: T1, APE-1; assay: Gel-based excision assay for APE-1 inhibitors; format: biochemical; conditions: APE-1 cleaved fragment vs. full length DNA substrate
Method: as §3

[6] = tested on: T98G cells; assay: MTT toxicity assay in T98G glioma cells; format: cell-based, human; conditions: FIG. 3(a)
Method: FIGS. 3(a)-(b). […] (b) Toxicity of MeLex (efficiently generates 3-mA) in the absence (o) and presence of 50 nM ( ) or 250 nM (∇) inhibitor 4.
Toxicity of APE1 Inhibitors in T98G Glioma Cells—A short term (MTT assay) and long term (clonogenic assay) dose response toxicity for the inhibitors was performed in T98G glioma cells in the absence of a DNA alkylating agent. This cell line was selected because it is quite resistant to many DNA alkylating agents; therefore, it represents a good model to test the potential effect of APE1 inhibition on the toxicity of DNA damaging compounds.

[7] = target: T1, APE-1; assay: Displacement of 4 from APE-1 by E3330 (fluorescence); format: binding; conditions: 6 μM 4, 1 μM APE-1
Method: Fluorescence and UV Spectrometry Binding Studies. The fluorescence spectra were measured at room temperature on a Cary Eclipse fluorescence spectrometer (Varian, Palo Alto, Calif.). The fluorescence properties of 1 and 4 were measured in 10 mM HEPES, 0.5 mM MgCl2, 100 mM KCl, 100 mM NaCl, 2% glycerol, in absence or presence of wild type (unmodified) hairpin DNA (5′-[…]-3′) or THF-modified hairpin DNA (5′-CGAXTTCGCAGGACCGAATTCG-3′) or APE-1 protein. A solution of 0.5 μM of either DNA sequence was titrated against 1-10 μM ethidium bromide (EtBr) to determine saturation of EtBr by fluorescence (530 nm excitation with 610 nm emission) and the subsequent displacement of EtBr (4 μM) by 1-20 μM 1 or 4 was also assayed. The APE protein-inhibitor binding fluorescence was assayed by titrating 0.1-20 μM of 4 against 1 μM of APE-1 protein.
Interaction of Inhibitors with APE-1 Protein. To establish whether there is a direct interaction between an inhibitor and APE-1, the fluorescence spectra of 4 was determined in the absence and presence of increasing amounts of the protein.

[8] = tested on: HEYC-2 ovarian tumor cells; conditions: read-out: IC50 for cell growth; cited from earlier work
[9] = tested on: T98G cells; assay: Potentiation of MeLex cytotoxicity, short term (72 h) MTS assay; format: cell-based, human; conditions: 72 h MTS assay
Method: (§4) Cytotoxic Potentiation of Various DNA Damaging Agents. T98G cells maintained in growth medium were resuspended in fresh growth medium and seeded into 96-well plates at 2000 cells/well (short term cytotoxicity) or 100 cells/well (long term cytotoxicity) as described in the previous section. After 24 h, the cells were treated with serial dilutions of various DNA damaging drugs in absence or presence of APE-1 inhibitors. At the end of the treatment period, cell survival was assayed using CellTiter 96 AQueous or CyQUANT kits for the short- and long-term studies respectively.
as §2

[10] = tested on: T98G cells; assay: Potentiation of MeLex cytotoxicity, long term (10 d) CyQUANT assay; format: cell-based, human; conditions: LD10 concentration
Method: as §4, §2

[11] = tested on: SKOV-3X ovarian tumor cells; conditions: read-out: IC50 for cell growth; cited from earlier work
[12] = tested on: T98G cells; assay: Short term (72 h) MTS cytotoxicity assay; format: cell-based, human; conditions: 72 h MTS assay
Method: as §1, §2

[13] = tested on: aldehyde reactive sites in genomic DNA from T98G cells; format: cell-based, human
Method: Quantification of Abasic Sites. T98G cells maintained in growth medium, were harvested by Trypsin-EDTA treatment, resuspended in fresh growth medium at a density of 2.5×10^5 cells mL^−1, and 2 mL (5×10^5 cells) of this suspension was seeded into the wells of a sterile 6-well tissue culture plate. Cells were allowed to grow for 24 h, treated with the various compounds for different time points and/or at different concentrations. At the end of each treatment, adherent cells were harvested by trypsin-EDTA treatment and pooled with live and dead cells in culture supernatant. Pooled cells in suspension were pelleted by centrifugation, washed with 1×PBS and genomic DNA was isolated using the DNAzol reagent (Invitrogen). DNA in solution was quantified by UV absorbance (λ260 nm) using a Synergy H1 multiwell plate reader (BioTek, Winooski, Vt.). Abasic sites in purified DNA were then reacted with the biotin-conjugated aldehyde reactive probe (ARP), immobilized onto 96-well ELISA plates, and detected using horseradish peroxidase (HRP)-conjugated streptavidin using a colorimetric substrate as per manufacturer's instructions (Dojindo Molecular Technologies, Rockville, Md.).
The biotin tagged ARS are quantified using an avidin-biotin assay, followed by colorimetric detection with horseradish peroxidase conjugated to avidin.

T1 sequence (P27695 whole entry): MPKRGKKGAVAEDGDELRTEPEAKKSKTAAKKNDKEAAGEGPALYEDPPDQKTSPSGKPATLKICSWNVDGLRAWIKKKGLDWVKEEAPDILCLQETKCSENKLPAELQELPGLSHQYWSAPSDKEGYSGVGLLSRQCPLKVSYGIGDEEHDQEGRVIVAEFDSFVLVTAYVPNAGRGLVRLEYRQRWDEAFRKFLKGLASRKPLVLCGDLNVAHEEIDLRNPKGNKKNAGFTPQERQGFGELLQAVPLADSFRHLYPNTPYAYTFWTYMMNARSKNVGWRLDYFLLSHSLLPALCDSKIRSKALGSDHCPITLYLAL
Chain of APE-1 activity in T98G cell nuclear lysates (P27695 whole entry, stated change not applied): as the sequence (P27695 whole entry) above

Cc1cc(N/N=C/c2ccc3c(c2)OCO3)c2cc3c(cc2n1)OCO3 [Compound 3]
Ki [1]: 280 nM
IC50 ([2]; Homo sapiens, T98G, assay not stated, read-out: toxicity observed in the glioma T98G line): 540 nM
IC50 [3]: 630 nM
Ki [4]: 190 nM
IC50 [5]: 2900 nM

CCn1c2ccccc2c2cc(/C=N/Nc3cc(C)nc4cc5c(cc34)OCO5)ccc21 [Inhibitor-1]
LD50 [6]: 960 nM

CCCCCCCCC/C(=C\C1=C(C)C(=O)C(OC)=C(OC)C1=O)C(=O)O [Compound E3330]
E3330 concentration for approximately 50% decrease in the fluorescence of 4 [7]: approximately 12 μM
IC50 [8]: ~35000 nM
LD50 of MeLex in the presence of LD10 concentration of inhibitor [9]: 128 µM
potentiating the toxicity of MeLex [10]: little or no contribution
LD10 concentration ([2]; long term assay): 14.80 µM
IC50 [11]: ~35000 nM
LD10 concentration [12]: 6.9 µM
effect on ARS ([13]; 0.25 μM compound alone): returned to control levels by 18 h
level of ARS in combination with MeLex ([13]; 80 μM MeLex + 0.25 μM compound, after 6 h): dropped off
